Columns and labels:
[1] = system: K-562R; test: Antiproliferative activity against human K-562R cells expressing Bcr-Abl T315I mutant assessed as inhibition of cell growth incubated for 48 hrs by MTT assay; type: functional, cell-based
[2] = molecular target: Bcr/Abl fusion protein (Homo sapiens, UniProt P00519, T315I); test: Inhibition of Bcr-Abl T315I mutant (unknown origin) incubated for 1 hr in presence of ATP by ADP-Glo kinase assay; type: protein assay
[3] = molecular target: Bcr/Abl fusion protein (Homo sapiens, UniProt P00519); test: Inhibition of wild type Bcr-Abl (unknown origin) incubated for 1 hr in presence of ATP by ADP-Glo kinase assay; type: protein assay
[4] = system: K562; test: Antiproliferative activity against human K562 cells assessed as inhibition of cell growth incubated for 48 hrs by MTT assay; type: functional, cell-based; settings: K562, 48 h
[5] = system: K562/Adr; test: Antiproliferative activity against human Adriamycin-resistant K562/Adr cells assessed as inhibition of cell growth incubated for 48 hrs by MTT assay; type: functional, cell-based
[6] = system: BaF3; test: Antiproliferative activity against mouse BaF3 cells expressing Bcr-Abl T315I mutant assessed as inhibition of cell growth at 30 uM incubated for 72 hrs by CellTiter-Glo luminescent assay; type: functional
[7] = system: BaF3; test: Antiproliferative activity against mouse BaF3 cells assessed as inhibition of cell growth incubated for 72 hrs by CellTiter-Glo luminescent assay; type: functional, cell-based; settings: BaF3, 72 h
[8] = system: BaF3; test: Antiproliferative activity against mouse BaF3 cells expressing wild type Bcr-Abl assessed as inhibition of cell growth incubated for 72 hrs by CellTiter-Glo luminescent assay; type: functional, cell-based; settings: BaF3, 72 h

Row | SMILES | IC50 [1] | IC50 [2] | IC50 [3] | IC50 [4] | IC50 [5] | inhibition at 30 µM [6] | IC50 [7] | IC50 [8]
1 | Cc1ccc(C(=O)Nc2ccc(CN3CCN(C)CC3)c(C(F)(F)F)c2)cc1C#Cc1cnc2cccnn12 [PONATINIB] | 0.08 µM |  |  |  |  |  |  | 
2 | C=CC(=O)Nc1ccc(-c2cn([C@@H]3CN[C@H](C(=O)Nc4ccc(Cl)c(C(F)(F)F)c4)C3)nn2)cn1 |  | 0.14 µM | 0.00926 µM | 3.86 µM | 80.4 µM | 26% |  | 
3 | O=C(NC1CC1)c1cncc(-c2cn([C@@H]3CN[C@H](C(=O)Nc4ccc(Cl)c(C(F)(F)F)c4)C3)nn2)c1 |  | 0.0315 µM | 0.00194 µM | 0.82 µM | 175 µM | 24.6% |  | 
4 | CCN1CCN(c2cc(NC(=O)[C@@H]3C[C@H](n4cc(-c5ccc6c(N)n[nH]c6c5)nn4)CN3)ccc2Cl)CC1 |  | 0.0848 µM | 0.00871 µM | 0.18 µM | 12.6 µM | 20% |  | 
5 | CC(C)(C)OC(=O)N1C[C@@H](n2cc(-c3ccc4nc(N)sc4n3)nn2)C[C@H]1C(=O)Nc1ccc(F)c(F)c1 |  | 0.487 µM | 0.0175 µM | 26.4 µM | 63.9 µM | 16.8% |  | 
6 | Cc1ccc(NC(=O)c2ccc(CN3CCN(C)CC3)cc2)cc1Nc1nccc(-c2cccnc2)n1 [IMATINIB] | 93 µM |  |  | 1.1 µM | 13.5 µM |  | 10 µM | 0.23 µM
7 | CC(=O)Nc1n[nH]c2cc(-c3cn([C@@H]4CN[C@H](C(=O)Nc5ccc(Cl)cc5Cl)C4)nn3)ccc12 |  | 0.135 µM | 0.00315 µM | 2.09 µM | 1.23 µM | 25.5% |  | 
8 | Nc1ccc(-c2cn([C@@H]3CN[C@H](C(=O)Nc4ccc(Cl)c(C(F)(F)F)c4)C3)nn2)cn1 |  | 0.303 µM | 0.00311 µM | 10.4 µM | 25.2 µM | 27.9% |  | 
